# Measurements as given in patent US9782489B2, “MetAP-2 inhibitor polymersomes for therapeutic administration” (priority 2007, dated 2017).
# “Also recorded” adds a separate entry of the source.
# Tests used:
# [1] = post-administration; cited from earlier work
# LLC tumors = assay: Oral Lodamin vs free TNP-470, primary Lewis lung carcinoma tumor experiments; assay type: in vivo, C57Bl/6J mice; conditions: 30 mg/kg q.o.d. oral (TNP-470 equivalent), day 18, FIG. 9A; listed as free TNP-470
# Method: For tumor experiments: LLC cells (1×10^6) or B16/F10 melanoma cells (1×10^6) were implanted subcutaneously in 8 week old C57Bl/6J male mice (Jackson Laboratories, Bar Harbor, Me.). Oral availability of free TNP-470 was compared to that of Lodamin. A dose of 30 mg/kg q.o.d. of free TNP-470 and an equivalent dose of Lodamin (Lodamin, 6 mg in 100 μl/d) were administered to LLC tumor bearing mice (˜100 mm^3) and tumor growth was followed for 18 d. Free drug was given as a suspension in double distilled water and freshly prepared before each dose. Additionally, we compared different doses and frequencies of Lodamin treatment: 15 mg/kg q.d., 15 mg/kg q.o.d. and 30 mg/kg q.o.d. To eliminate any possible effect of the vehicle (polymer without drug) one group of mice was given micelles without drug and tumor progression was compared to water treated mice.
# For the melanoma tumor experiment, a dose of 15 mg/kg q.d. Lodamin was administered to B16/F10 melanoma bearing mice. In all experiments, tumor size and animal weight were monitored every 2 d. Tumor volume was measured with calipers in two diameters as follows: (width)×(length)×0.52. Note that all the above Lodamin doses are presented as TNP-470 equivalent.
# [2] = Balance beam motor coordination test (neurotoxicity); assay type: in vivo; conditions: 30 mg/kg q.o.d. for 14 d; Lodamin oral, free TNP-470 injected subcutaneously; vs water treated mice
# Method: A slightly modified balance beam motor coordination test was performed on three groups of mice: Oral Lodamin treated mice (30 mg/kg eq. q.o.d.), free TNP-470 (30 mg/kg) subcutaneously injected mice and water treated mice (administered by gavage). The mice were pretreated for 14 d (n=4-5 per group) and then the mice were allowed to acclimate to the procedure room for 1 h, after which they were trained in 3 trials to cross a wide (20 mm width×1 m length) balance beam. All the mice crossed the wide beam without making foot-slip errors. The mice were then trained on a narrow (4 mm width×1 m length) beam for 3 trials. At the end of the training trials, no freezing behavior was observed, and the mice would start to walk within 4 seconds of being placed on the beam. The mice were then videotaped as they performed in 3 test trials of 3 beam crossings each—a total of 9 crossings per mouse. The 3 trials were separated by at least 1 h to avoid fatigue of the mice. Videotaped crossings were scored for number of foot-slip errors and time to cross. All experiments and scoring of the different groups were performed by an investigator who has been no knowledge regarding the treatment regime of the mice.
# [3] = system: murine, human and metastatic tumors; conditions: mice; most studies 30 mg/kg subcutaneously every other day; cited from earlier work
# obesity = conditions: mice; cited from earlier work
# [4] = high chemotherapeutic doses; cited from earlier work
# [5] = in vivo; cited from earlier work
Compound,time up to which detected in mice sera [1],inhibition of LLC tumor growth (LLC tumors),balance beam performance (foot-slip errors) [2],inhibition of growth of human tumors [3],inhibition of growth of metastatic tumors [3],inhibition of growth of murine tumors [3],effect on obesity (obesity),adverse effects in patients [4],plasma half-life of the drug [5],plasma half-life of the metabolites [5]
6-O—(N-chloroacetylcarbamoyl) fumagillol [TNP-470],up to 2 h,,,,,,,,,
"COC1C(OC(=O)NC(=O)CCl)CCC2(CO2)C1[C@@]1(C)O[C@@H]1CC=C(C)C (stereo partly shown) [TNP-470, 6-O—(N-chloroacetylcarbamoyl) fumagillol]",,no inhibition; also recorded: no effect,over twice as many errors,up to 100%,up to 100%,up to 91%,prevent diet-induced and genetic obesity,neurotoxicity,a few minutes,less than 2 hr
